Target: SMARCA2 (Homo sapiens, UniProt P51531)
Assay: MSD SMARCA2 degradation in NCI-H1299 cell line (24 h)
Format: cell-based
Set-up: HC: NCI-H1299 cells treated with DMSO; host or cells: NCI-H1299
Conditions: for Dmax: NCI-H1299, NCI-H1299 cells; for DC50: NCI-H1299 cells, read-out: SMARCA2 MSD H1299 degradation 24 h: External Abs-DC50
Protocol: Example 32. MSD SMARCA2 Degradation in […] Cell Line
Cell Culture: Cells were cultured in exponential growth phase.
Compound Preparation and Treatment: NCI-H1299 cells were seeded into the 96-well plate at 4.0*10^4 cells per 100 ul per well. Incubate the plate in the incubator overnight. The next day, compounds were diluted to designed stock concentration by TECAN, then perform a 3 fold, 9-point dilution via transferring 15 uL compound into 30 μL DMSO using Apricot. 200 nL diluted compound from compound source plate were transferred into the 96-intermediate plate as designated by using Echo550, followed with 100 ul culture medium to make the 2× compound solution. Cell plate were changed with 80 ul of fresh culture medium and 80 ul of 2× compound solution was added into the well to achieve the final designed concentration. Cell plate was then shaken at 720 rpm for 5 min and incubated for 24 hours in the incubator.
Sample Preparation: Media was aspirated from the cultures and the plate was washed with PBS twice. 60 ul of pre-chilled PIPA lysis buffer (Boston BioProducts BP-115D) with protease inhibitor were directly added into the well to lyze the cells for 20 minutes at 4° C. Cell lysates were collected.
MSD Procedure: The MSD plate was coated with 40 ul cell lysate and incubated at 4° C. overnight. The next day, the MSD coated bare plate was washed 3 times with 150 ul 1×TBST per well, blocked with 150 ul of blocking buffer per well, and shaken for 1 hour at RT, 600 rpm. Blocking buffer was 3% Blocker A in TBST. MSD plate was then washed 3 times with 150 ul 1×TBST per well and Primary Detection antibody (Rabbit anti-SMARCA2/BRM antibody, 100 μg/ml, ab223735) was added to a final [conc.]: 0.3 ug/ml, 25 ul/well and shaken for 1 hour at RT, 600 rpm. Antibody was prepared in Antibody Detection buffer (1% Blocker A in 1×TBST). The MSD plate was then washed 3 times with 150 ul 1×TBST per well. Secondary Detection antibody (SULFO-TAG anti-species antibody) was then added to a final [conc.]: 1 ug/ml, 25 ul/well, and shaken for 1 hour at RT, 600 rpm. Antibodies were prepared in Antibody Detection buffer (1% Blocker A in 1×TBST). MSD plate was washed 3 times with 150 ul 1×TBST per well and 2×MSD reading buffer was added, 150 ul per well, and diluted from 4× with water. MSD instrument was then read.
Data Analysis: The percentage of relative level of SMARCA2 level was calculated following equation below.
LC: A2780, SMARCA2 negative cells. HC: NCI-H1299 cells treated with DMSO.
The letter codes for the percentage of SMARCA2 degradation after 24 hours (Dmax %) include: A (>90% degradation), B (>70-90 degradation), C (50-70 degradation), and D (<50% degradation).

Chain of SMARCA2 (P51531 whole entry): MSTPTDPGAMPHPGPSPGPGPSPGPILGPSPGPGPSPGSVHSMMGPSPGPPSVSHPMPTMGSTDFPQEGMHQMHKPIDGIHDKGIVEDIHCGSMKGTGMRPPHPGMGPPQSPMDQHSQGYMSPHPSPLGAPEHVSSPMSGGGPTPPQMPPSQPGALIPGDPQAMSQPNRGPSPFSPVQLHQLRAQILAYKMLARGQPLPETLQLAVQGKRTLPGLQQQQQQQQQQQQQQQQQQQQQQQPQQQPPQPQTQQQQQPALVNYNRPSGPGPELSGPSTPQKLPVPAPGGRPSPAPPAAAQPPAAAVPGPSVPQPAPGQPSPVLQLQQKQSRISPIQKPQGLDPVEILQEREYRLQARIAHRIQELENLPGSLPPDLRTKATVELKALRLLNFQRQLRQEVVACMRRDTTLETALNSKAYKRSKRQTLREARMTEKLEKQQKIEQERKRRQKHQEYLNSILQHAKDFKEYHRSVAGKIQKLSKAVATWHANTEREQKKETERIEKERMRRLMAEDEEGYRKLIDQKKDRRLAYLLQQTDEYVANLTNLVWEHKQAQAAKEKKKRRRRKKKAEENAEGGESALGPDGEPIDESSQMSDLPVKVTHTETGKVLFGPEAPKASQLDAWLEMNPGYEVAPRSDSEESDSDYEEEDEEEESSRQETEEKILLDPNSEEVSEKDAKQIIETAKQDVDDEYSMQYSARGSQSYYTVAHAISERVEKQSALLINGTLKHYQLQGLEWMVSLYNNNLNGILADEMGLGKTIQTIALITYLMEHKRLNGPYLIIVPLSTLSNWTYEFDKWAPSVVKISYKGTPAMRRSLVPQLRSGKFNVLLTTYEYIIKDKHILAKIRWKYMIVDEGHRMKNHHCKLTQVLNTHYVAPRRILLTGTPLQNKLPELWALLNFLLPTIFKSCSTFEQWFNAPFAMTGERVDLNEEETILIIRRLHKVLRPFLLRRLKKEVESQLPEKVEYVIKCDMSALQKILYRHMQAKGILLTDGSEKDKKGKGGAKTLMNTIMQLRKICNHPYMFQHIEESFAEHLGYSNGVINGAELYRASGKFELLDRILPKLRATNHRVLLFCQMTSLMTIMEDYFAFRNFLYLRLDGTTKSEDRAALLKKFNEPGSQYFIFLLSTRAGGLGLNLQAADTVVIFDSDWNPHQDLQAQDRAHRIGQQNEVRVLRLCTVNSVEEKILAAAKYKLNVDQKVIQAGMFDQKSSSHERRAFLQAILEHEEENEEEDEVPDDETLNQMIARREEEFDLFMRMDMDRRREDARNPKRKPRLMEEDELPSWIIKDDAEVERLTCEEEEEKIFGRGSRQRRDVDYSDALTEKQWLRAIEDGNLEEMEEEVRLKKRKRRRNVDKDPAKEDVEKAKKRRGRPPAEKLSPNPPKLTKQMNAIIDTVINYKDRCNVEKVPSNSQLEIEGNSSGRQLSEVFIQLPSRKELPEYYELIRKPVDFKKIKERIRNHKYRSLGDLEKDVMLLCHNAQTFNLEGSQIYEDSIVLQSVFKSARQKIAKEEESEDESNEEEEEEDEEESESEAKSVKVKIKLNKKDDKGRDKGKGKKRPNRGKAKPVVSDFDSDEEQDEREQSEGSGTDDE

SMILES | Dmax [%] | DC50 [nM]
Cn1c(=O)n(C2CCC(=O)NC2=O)c2cccc(CNCCc3cn(Cc4cccc(N5C[C@H]6C[C@@H]5CN6/C=C/C(=O)c5ccccc5O)n4)nn3)c21 (stereo partly drawn) [I-78, 3-[4-[[2-[1-[[6-[(1R,4R)-5-[(E)-3-(2-hydroxyphenyl)-3-oxo-prop-1-enyl]-2,5-diazabicyclo[2.2.1]heptan-2-yl]-2-pyridyl]methyl]triazol-4-yl]ethylamino]methyl]-3-methyl-2-oxo-benzimidazol-1-yl]piperidine-2,6-dione] | < 50 | > 1000
O=C(CCCCCCCCOc1ccnc(N2C[C@H]3C[C@@H]2CN3/C=C/C(=O)c2ccccc2O)c1)NCCOCCOCCOCCOCCNc1cccc2c1C(=O)N(C1CCC(=O)NC1=O)C2=O (stereo partly shown) [I-18] | – | > 1000
CN[C@@H](C)C(=O)N[C@H](C(=O)N1Cc2cc(OCCOCCOCCNC(=O)CCCOc3cccc(N4C[C@H]5C[C@@H]4CN5/C=C/C(=O)c4ccccc4O)n3)ccc2C[C@H]1C(=O)N[C@@H]1CCCc2ccccc21)C(C)(C)C [I-200] | – | > 1000
Cc1ncsc1-c1ccc(CNC(=O)[C@@H]2C[C@@H](O)CN2C(=O)[C@@H](NC(=O)COCCOCCOCCOCCOCCNC(=O)CCCCCCCCOc2ccnc(N3C[C@H]4C[C@@H]3CN4/C=C/C(=O)c3ccccc3O)c2)C(C)(C)C)cc1 [I-222] | – | > 1000
Cn1c(=O)n(C2CCC(=O)NC2=O)c2ccc(CN3CCC(c4cnc(N5C6CCC5CN(c5cc(-c7ccccc7O)nnc5N)C6)nc4)CC3)cc21 (stereo not shown) [I-196] | > 90 | < 100
Cc1ncsc1-c1ccc(CNC(=O)[C@@H]2C[C@@H](O)CN2C(=O)[C@@H](NC(=O)COCCOCCOCCOCCNC(=O)CCCCCCCCOc2ccnc(N3C[C@H]4C[C@@H]3CN4/C=C/C(=O)c3ccccc3O)c2)C(C)(C)C)cc1 [I-223] | – | > 1000
CN[C@@H](C)C(=O)N[C@H](C(=O)N1Cc2cc(OCCOCCOCCOCCNC(=O)c3ccc(C(C)n4cc(-c5cc(-c6ccccc6O)nnc5N)cn4)cc3)ccc2C[C@H]1C(=O)N[C@@H]1CCCc2ccccc21)C(C)(C)C (stereo partly shown) [I-208] | – | > 1000
CN[C@@H](C)C(=O)N[C@H](C(=O)N1Cc2cc(OCCOCCOCCOCCNC(=O)CCCCCCCCOc3ccnc(N4C[C@H]5C[C@@H]4CN5/C=C/C(=O)c4ccccc4O)c3)ccc2C[C@H]1C(=O)N[C@@H]1CCCc2ccccc21)C(C)(C)C [I-204] | – | > 1000
O=C(CCCCCCCCOc1ccc(N2C[C@H]3C[C@@H]2CN3/C=C/C(=O)c2ccccc2O)nc1)NCCOCCOCCNc1cccc2c1C(=O)N(C1CCC(=O)NC1=O)C2=O (stereo partly shown) [I-7] | – | > 1000
Cn1c(=O)n(C2CCC(=O)NC2=O)c2cccc(CCCOCCOc3cccc(N4C[C@H]5C[C@@H]4CN5/C=C/C(=O)c4ccccc4O)n3)c21 (stereo partly shown) [I-30] | – | > 1000
Cn1c(=O)n(C2CCC(=O)NC2=O)c2ccc(CCCCCCCCc3cn(Cc4cccc(N5C[C@H]6C[C@@H]5CN6/C=C/C(=O)c5ccccc5O)n4)nn3)cc21 (stereo partly shown) [I-48] | < 50 | > 1000
Cn1c(=O)n(C2CCC(=O)NC2=O)c2ccc(C#CCCCCc3cn(Cc4cccc(N5C[C@H]6C[C@@H]5CN6/C=C/C(=O)c5ccccc5O)n4)nn3)cc21 (stereo partly shown) [I-61] | < 50 | > 1000
Cn1c(=O)n(C2CCC(=O)NC2=O)c2ccc(CCCOCCOCCOCCOCCNC(=O)CCCCCCCCOc3ccnc(N4C[C@H]5C[C@@H]4CN5/C=C/C(=O)c4ccccc4O)c3)cc21 (stereo partly shown) [I-21] | – | > 1000
Cn1c(=O)n(C2CCC(=O)NC2=O)c2ccc(C#CCCCCCc3cn(Cc4cccc(N5C[C@H]6C[C@@H]5CN6/C=C/C(=O)c5ccccc5O)n4)nn3)cc21 (stereo partly shown) [I-62] | < 50 | > 1000
O=C1CCC(n2c(=O)n(CCCCc3cn(Cc4cccc(N5C[C@H]6C[C@@H]5CN6/C=C/C(=O)c5ccccc5O)n4)nn3)c3ccccc32)C(=O)N1 (stereo partly shown) [I-54] | < 50 | > 1000
Cc1ncsc1-c1ccc(CNC(=O)[C@@H]2C[C@@H](O)CN2C(=O)[C@@H](NC(=O)COCCOCCOCCOCCNC(=O)CCCOc2cccc(N3C[C@H]4C[C@@H]3CN4/C=C/C(=O)c3ccccc3O)n2)C(C)(C)C)cc1 [I-201] | – | > 1000
Cc1ncsc1-c1ccc(CNC(=O)[C@@H]2C[C@@H](O)CN2C(=O)[C@@H](NC(=O)COCCOCCOCCOCCOCCNC(=O)CCCCCCCCOc2ccc(N3C[C@H]4C[C@@H]3CN4/C=C/C(=O)c3ccccc3O)nc2)C(C)(C)C)cc1 [I-230] | – | > 1000
Cc1ncsc1-c1ccc(CNC(=O)[C@@H]2C[C@@H](O)CN2C(=O)[C@@H](NC(=O)COCCOCCOCCOCCOCCOCCNC(=O)c2ccc(C(C)n3cc(-c4cc(-c5ccccc5O)nnc4N)cn3)cc2)C(C)(C)C)cc1 (stereo partly shown) [I-225] | – | > 1000
Cn1c(=O)n(C2CCC(=O)NC2=O)c2ccc(CCCN3CCC(c4cnc(N5C6CCC5CN(c5cc(-c7ccccc7O)nnc5N)C6)nc4)CC3)cc21 (stereo not shown) [I-167, 3-[5-[3-[4-[2-[3-[3-amino-6-(2-hydroxyphenyl)pyridazin-4-yl]-3,8-diazabicyclo[3.2.1]octan-8-yl]pyrimidin-5-yl]-1-piperidyl]propyl]-3-methyl-2-oxo-benzimidazol-1-yl]piperidine-2,6-dione] | > 90 | < 100
O=C1CCC(N2C(=O)c3cccc(NCCOCc4cn(Cc5cccc(N6C[C@H]7C[C@@H]6CN7/C=C/C(=O)c6ccccc6O)n5)nn4)c3C2=O)C(=O)N1 (stereo partly shown) [I-38] | – | > 1000

Other lines, results leading:

Dmax [%] | DC50 [nM] | SMILES
70 to 90 | < 100 | Cn1c(=O)n(C2CCC(=O)NC2=O)c2cccc(CCCOCCCN3CCN(Cc4ccc(-c5cc(-c6ccccc6O)nnc5N)cc4)CC3)c21 (stereo not shown) [I-140]
> 90 | > 1000 | CC(C)(CCOCCCc1cccc2c1oc(=O)n2C1CCC(=O)NC1=O)NCc1ccc(N2CCN(c3cc(-c4ccccc4O)nnc3N)CC2)cc1 (stereo not shown) [I-129]
50 to 70 | 100 to 500 | Cn1c(=O)n(C2CCC(=O)NC2=O)c2cccc(CCCCCOc3ccc(CN4CCN(c5cc(-c6ccccc6O)nnc5N)CC4)cc3)c21 (stereo not shown) [I-92]
> 90 | < 100 | Cn1c(=O)n(C2CCC(=O)NC2=O)c2cccc(CCCCCN3CCC(n4cc(-c5cc(-c6ccccc6O)nnc5N)cn4)CC3)c21 (stereo not shown) [I-175]
< 50 | > 1000 | Cn1c(=O)n(C2CCC(=O)NC2=O)c2ccc(CCCCCCCCCOc3cccc(CN4CCN(c5cc(-c6ccccc6O)nnc5N)CC4)c3)cc21 (stereo not shown) [I-143]
< 50 | > 1000 | Cn1c(=O)n(C2CCC(=O)NC2=O)c2ccc(CCCCCOc3cccc(CN4CCN(c5cc(-c6ccccc6O)nnc5N)CC4)c3)cc21 (stereo not shown) [I-102]
– | > 1000 | CC(c1ccc(CNCCOCCOCCOCCCc2ccc3c(c2)n(C)c(=O)n3C2CCC(=O)NC2=O)cc1)n1cc(-c2cc(-c3ccccc3O)nnc2N)cn1 (stereo not shown) [I-42, 3-(5-(1-(4-(1-(4-(3-amino-6-(2-hydroxyphenyl)pyridazin-4-yl)-1H-pyrazol-1-yl)ethyl)phenyl)-5,8,11-trioxa-2-azatetradecan-14-yl)-3-methyl-2-oxo-2,3-dihydro-1H-benzo[d]imidazol-1-yl)piperidine-2,6-dione]
< 50 | > 1000 | Cn1c(=O)n(C2CCC(=O)NC2=O)c2cccc(CCCCCCCOc3cccc(CN4CCN(c5cc(-c6ccccc6O)nnc5N)CC4)c3)c21 (stereo not shown) [I-99]
50 to 70 | 100 to 500 | Cn1c(=O)n(C2CCC(=O)NC2=O)c2cccc(CCCOCCOCCN3CCN(Cc4ccc(-c5cc(-c6ccccc6O)nnc5N)cc4)CC3)c21 (stereo not shown) [I-107]
50 to 70 | 100 to 500 | Cn1c(=O)n(C2CCC(=O)NC2=O)c2ccc(CCCN3CCC[C@@H](Cn4cc(-c5cc(-c6ccccc6O)nnc5N)cn4)C3)cc21 (stereo partly shown) [I-191]

— patent publication US12624044B2, “SMARCA degraders and uses thereof” (Kymera Therapeutics, Inc., priority 2019, dated 2026)
